Measurements: patent US20120316137A1, “Methods and Compositions for Treating Cancer” (priority 2009, published 2012)
Where two headings read alike, the source gives them in different places.

How the values were obtained:
[1] = system: KG1 cells (FGFR1OP2-FGFR1); assay: Cell viability assay (72 h); settings: Homo sapiens, KG-1, 72 h, read-out: Cell viability IC50 (nM)
Description: (§1) Exponentially growing cell lines were plated into 96-well plates and incubated overnight at 37° C. […] Fluorescence was measured using a Wallac Victor microplate reader (PerkinElmer, Waltham, Mass.). […] Data are shown as mean (1 SD) from 3 separate experiments, each tested in triplicate.

[2] = system: RS4;11 cells (wt); assay: Cell viability assay (72 h); settings: Homo sapiens, RS4-11, 72 h, read-out: Cell viability IC50 (nM)
Description: as §1

[3] = system: Kasumi-1 cells (c-KIT N822K); assay: Cell viability assay (72 h); format: cell-based; settings: Homo sapiens; Kasumi-1; 72 hours; read-out: Cell viability IC50
Description: as §1

[4] = system: EOL1 cells (FIP1L1-PDGFRα); assay: Cell viability assay (72 h); settings: Homo sapiens, EOL1, 72 h, read-out: Cell viability IC50 (nM)
Description: as §1

[5] = system: MV4-11 cells (FLT3-ITD); assay: Cell viability assay (72 h); settings: Homo sapiens, MV4-11, 72 h, read-out: Cell viability IC50 (nM)
Description: as §1

[6] = system: MDA-MB-453 breast cancer cells, mutant FGFR4 (Y367C); assay: cells; settings: Homo sapiens, MDA-MB-453, read-out: Cell growth GI50 (nM)
Excerpt: (§2) Data are shown as mean (±SD) from 3 separate experiments tested in triplicate.

[7] = system: OPM2 multiple myeloma cells, mutant FGFR3 (K650E); assay: cells; settings: Homo sapiens, OPM-2, read-out: Cell growth GI50 (nM)
Excerpt: as §2

[8] = system: MGH-U3 bladder cancer cells, mutant FGFR3b (Y375C); assay: Cell growth assay (72 h); format: cell-based
Excerpt: as §2

[9] = system: SNU16 gastric cancer cells with amplified FGFR2; assay: cells; settings: Homo sapiens, SNU-16, read-out: Cell growth GI50 (nM)
Excerpt: as §2

[10] = system: KG1 cells (FGFR1-FGFR1OP2 fusion); assay: Cell growth assay (72 h); format: cell-based; settings: Homo sapiens
Excerpt: as §2

[11] = system: AN3CA endometrial cancer cells with mutant FGFR2 (N549K); assay: cells; settings: Homo sapiens, AN3-CA, read-out: Cell growth GI50 (nM)
Excerpt: as §2

[12] = system: FGFR2 signaling in SNU16 gastric cells (Amplified); assay: cells; settings: Homo sapiens, SNU-16, read-out: Signaling IC50 (nM)
Excerpt: Cells were lysed in either SDS buffer or Phospho-Safe (Novagen, Gibbstown, N.J.) and protein lysates were immunoprecipitated overnight and/or immunoblotted with the indicated antibodies. Protein expression was quantified using Quantity One software (BioRad, Hercules, Calif.).

[13] = system: MFE-296 endometrial cancer cell line; assay: Combination cell growth assay (Chou and Talalay); format: cell-based; settings: MFE-296 cells; cell growth; read-out: 1×EC50 concentration
[14] = system: FGFR2-mutant AN3CA tumor xenograft; assay: AN3CA xenograft, compound 1 and ridaforolimus (Example 9); format: in vivo, nude mice
Description: AN3CA cells were implanted into the right flank of nude mice. […] Mean tumor volumes (±SE; tumor volume=L×W^2×0.5) were calculated for each treatment group.

[15] = system: AN3CA endometrial cancer cell line; assay: Combination cell growth assay (Chou and Talalay); format: cell-based; settings: AN3CA cells; cell growth; read-out: 1×EC50 concentration
[16] = biological target: FGFR4 (Homo sapiens, UniProt P22455); assay: Kinase assay (RBC)
Chain of FGFR4 (P22455 467-755 limits assumed): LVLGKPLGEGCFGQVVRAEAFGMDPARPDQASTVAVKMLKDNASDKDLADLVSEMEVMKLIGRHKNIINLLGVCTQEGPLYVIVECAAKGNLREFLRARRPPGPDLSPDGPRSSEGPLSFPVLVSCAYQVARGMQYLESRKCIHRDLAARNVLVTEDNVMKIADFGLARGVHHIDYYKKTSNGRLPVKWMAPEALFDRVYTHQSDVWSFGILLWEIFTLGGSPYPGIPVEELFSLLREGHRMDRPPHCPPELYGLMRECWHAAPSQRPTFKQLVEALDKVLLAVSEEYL

[17] = biological target: FGFR2 (Homo sapiens, UniProt P21802); assay: Kinase assay (RBC); settings: IC50 (nM), 10 μM ATP
Chain of FGFR2 (P21802 481-770 limits assumed): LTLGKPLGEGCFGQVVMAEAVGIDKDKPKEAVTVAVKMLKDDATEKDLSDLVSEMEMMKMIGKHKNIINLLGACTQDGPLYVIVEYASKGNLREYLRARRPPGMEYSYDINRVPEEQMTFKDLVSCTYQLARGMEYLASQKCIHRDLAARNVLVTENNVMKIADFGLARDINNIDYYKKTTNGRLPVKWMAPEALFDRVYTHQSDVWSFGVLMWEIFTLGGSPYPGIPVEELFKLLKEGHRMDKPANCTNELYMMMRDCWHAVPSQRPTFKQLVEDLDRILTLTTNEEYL

[18] = system: mononuclear cells from a CML accelerated phase patient harboring BCR-ABL^T315I; assay: Hematopoietic colony forming assay; settings: methylcellulose, 14-18 days
[19] = KG-1, read-out: Cell growth GI50 (nM)
[20] = MGH-U3, read-out: Cell growth GI50

SMILES: CNC(=O)c1cc(Oc2ccc(NC(=O)Nc3ccc(Cl)c(C(F)(F)F)c3)cc2)ccn1 [Sorafenib, sorafenib]
- IC50 [1]: > 100 nM
- IC50 [2]: > 100 nM
- IC50 [3]: 59 nM
- IC50 [4]: 0.5 nM
- IC50 [5]: 4 nM

SMILES: CCN(CC)CCNC(=O)c1c(C)[nH]c(/C=C2\C(=O)Nc3ccc(F)cc32)c1C [Sunitinib, sunitinib]
- IC50 [1]: > 100 nM
- IC50 [2]: > 100 nM
- IC50 [3]: 56 nM
- IC50 [4]: 3 nM
- IC50 [5]: 12 nM

SMILES: COC(=O)c1ccc2c(c1)NC(=O)/C2=C(\Nc1ccc(N(C)C(=O)CN2CCN(C)CC2)cc1)c1ccccc1 [BIBF 1120]
- GI50 [6]: 1540 nM
- GI50 [7]: 297 nM
- GI50 ([8]; read-out: Cell growth GI50 (nM), MGH-U3): > 1000 nM
- GI50 [9]: 496 nM
- GI50 [10, 19]: 221 nM
- GI50 [11]: 684 nM
- IC50 [12]: 496 nM

SMILES: CO[C@H]1C[C@@H]2CC[C@@H](C)[C@@](O)(O2)C(=O)C(=O)N2CCCC[C@H]2C(=O)O[C@H]([C@H](C)C[C@@H]2CC[C@@H](OP(C)(C)=O)[C@H](OC)C2)CC(=O)[C@H](C)/C=C(\C)[C@@H](O)[C@@H](OC)C(=O)[C@H](C)C[C@H](C)/C=C/C=C/C=C/1C [Ridaforolimus, reference compound]
- EC50 [13]: 1 nM
- TGI (%) ([14]; Ridaforolimus 0.3 mg/kg alone): 48%
- TGI (%) ([14]; Ridaforolimus 1 mg/kg alone): 70%
- EC50 [15]: 0.4 nM

SMILES: CCN(CC)CCCCNc1ncc2cc(-c3cc(OC)cc(OC)c3)c(NC(=O)NC(C)(C)C)nc2n1 [PD 173074]
- GI50 [6]: 1660 nM
- IC50 [16]: 367 nM
- GI50 [7]: 83 nM
- GI50 [8, 20]: 850 nM
- GI50 [9]: 20 nM
- GI50 [10, 19]: 10 nM
- GI50 [11]: 187 nM

SMILES: Cc1cc2c(F)c(Oc3ncnn4cc(OC[C@@H](C)O)c(C)c34)ccc2[nH]1 [BMS-540215]
- GI50 [6]: > 10000 nM
- IC50 [17]: 202 nM
- GI50 [7]: 6200 nM
- GI50 [8, 20]: > 1000 nM
- GI50 [9]: > 1000 nM
- GI50 [11]: > 1000 nM
- IC50 [12]: > 1000 nM

SMILES: COc1cc2c(Oc3ccc4[nH]c(C)cc4c3F)ncnc2cc1OCCCN1CCCC1 [AZD 2171]
- GI50 [6]: > 1000 nM
- GI50 [7]: 296 nM
- GI50 [8, 20]: 296 nM
- GI50 ([10]; KG-1, KG1, read-out: Cell growth GI50): 23 nM
- GI50 [11]: 34 nM
- IC50 [12]: 148 nM

SMILES: Cc1cn(-c2cc(NC(=O)c3ccc(C)c(Nc4nccc(-c5cccnc5)n4)c3)cc(C(F)(F)F)c2)cn1 [nilotinib]
- effect on colony formation [18]: neither nilotinib nor dasatinib showed any effect
